What all share (assay type): cell-based
Assay [1] relates to primary rat hepatocytes. Kind of assay: Hepatotoxicity assessment, cell viability (trypan blue exclusion) after 24 h compound treatment. Conditions: Hepatocyte, 24 h treatment. How it is done:
(§1) To explore the possible application of cell fibers encapsulating primary hepatocytes in the field of drug screening, we evaluated the potential of cell fibers for in vitro detection of hepatotoxicity of drugs. […] First, primary rat hepatocytes were encapsulated into core–shell hydrogel microfibers at the initial cell seeding density of 2.5 × 10^7 cells mL^−1 and were cultured in the media supplemented with 3T3CM. Secondly, the concentration-reaction curves for these compounds were obtained through the assays of cellular viability, albumin secretion, and urea synthesis performed at different time points: 4 days, 7 days, 14 days, and 30 days after the start of culture. Thirdly, based upon these concentration-reaction curves (Figs. S4–S7), the corresponding IC50 values were estimated. Moreover, we attempted to compare these IC50 values with those obtained using another culture system where primary rat hepatocytes were cultured on collagen-coated 24-well plates.
(§2) Primary rat hepatocytes cultured either in cell fibers or in collagen-coated 24-well plates were treated for 24 h with either of these compounds diluted in media at intended concentrations, and then the respective compound-treated hepatocytes underwent assays of their different specific characteristics: cell viability, albumin secretion, or urea synthesis. Data from drug-treated hepatocytes were normalized to the respective untreated controls in the same culture system. By plotting these normalized data on y-axis and the concentrations of compounds on x-axis, the concentration-reaction curves were generated.
(§3) Culture of primary rat hepatocytes in cell fibers
(§4) After formation of core-shell hydrogel microfibers encapsulating primary rat hepatocytes, they were incubated at 37 °C for more than 15 minutes to set the ECM proteins at the core region into gels. Subsequently, primary rat hepatocytes in cell fibers were cultured in DMEM supplemented with 1% Glutamax, 10% heat-inactivated FBS, 100 IU mL-1 penicillin, 100 mg mL-1 streptomycin, insulin, 6.25 mg mL-1 transferrin, 6.25 ng mL-1 selenous acid (Lonza, Tokyo, Japan), and 1mM HEPES at 37 °C under a water saturated 5% CO2 environment; this medium is the one that have been optimized to […]
(§5) were performed every 48 hours. […]
(§6) Culture of primary rat hepatocytes using collagen-coated 24-well plates 5x10^5 primary rat hepatocytes freshly isolated were seeded on collagen-coated 24-well plates (Corning Japan K.K, Tokyo, Japan). The primary rat hepatocytes were first cultured in Dulbecco’s Modified Eagle’s Medium (DMEM; Gibco, Tokyo, Japan) supplemented with 1% Glutamax (Life Technologies, Tokyo, Japan), 10% heat-inactivated foetal bovine serum (Equitech-Bio, Kerrville, TX), 100 IU mL-1 penicillin (Gibco), 100 mg mL-1 streptomycin (Gibco), and 1mM HEPES (Sigma Aldrich, Japan)

The subject of assay [2] is primary rat hepatocytes. Kind of assay: Hepatotoxicity assessment, urea synthesis after 24 h compound treatment. The settings on record: Hepatocyte, 24 h treatment. As for the experimental part:
as §1
(§7) The amount of albumin in culture medium was measured using an enzyme-linked immunosorbent assay kit (rat albumin ELISA kit, Bethyl Laboratories, Montgomery, TX). The amount of urea in culture medium was measured using an assay kit (QuantiChrom urea assay kit, BioAssay Systems, Hayward, CA). For both assays, respective absorbency at 450 nm or at 430 nm was measured using a microplate reader (MTP-810, Corona Electric, and Hitachi, Japan). All the values were normalized by the number of hepatocytes and the data were expressed as protein amount 10^–6 cells time^−1.
as §2, §3, §4, §5
as §6, with “Aldrich, Japan) at 37 °C under a water saturated 5% CO2 environment. Three hours after the beginning of culture, media were changed and the primary rat hepatocytes started to be cultured in William’s medium E (Life Technologies) supplemented with 1% Glutamax, 100 IU mL-” for “Aldrich, Japan)”

The test system of assay [3] is primary rat hepatocytes. Kind of assay: Hepatotoxicity assessment, albumin secretion (ELISA) after 24 h compound treatment. Conditions: Hepatocyte, 24 h treatment. As for the experimental part:
as §1, §7, §2, §3, §4, §5
as §6, with “Aldrich, Japan) at 37 °C under a water saturated 5% CO2 environment. […]” for “Aldrich, Japan)”
In general terms: An ELISA detects its analyte on a solid surface through an enzyme-linked reagent.

Assay [4] has as its system primary rat hepatocytes. Kind of assay: Assessment of hepatocyte proliferation inhibition in cell fibers. The source says:
Practically, core–shell hydrogel microfibers were fabricated to encapsulate primary rat hepatocytes at the initial cell seeding density of 2.5 × 10^7 cells mL^−1.
For that, we first fabricated cell fibers encapsulating primary rat hepatocytes at the initial cell seeding density of 2.5 × 10^7 cells mL^−1. […] Subsequently, we compared these two groups over time by analyzing their morphology and cell number.
Counting primary rat hepatocytes and evaluating their viability per cell fiber were performed three times and averaged. Prior to those procedures, the alginate shells were removed, and the primary rat hepatocytes were retrieved. To remove the shells of the cell fibers, 4 mg mL^−1 of alginate lyase (Sigma Aldrich) in Dulbecco's Phosphate-Buffered Saline (DPBS) (+) was added at a 1:100 ratio to the culture media, and the media were incubated for 15 min. To retrieve primary rat hepatocytes from ECM, 4 mg mL^−1 of collagenase (Sigma-Aldrich) in DPBS (+) was added at a 1:50 ratio to the culture media and the media were incubated for 5 min. The cell number of primary rat hepatocytes per cell fiber was counted by using cell-counting plate (WakenBtech, Japan). The cellular viabilities were examined by the trypan blue dye-exclusion test.
Then immediately, this working solution was diluted in media at intended concentrations. The changeover between starting and stopping exposure to retrorsine was done by medium replacement; the culture media surrounding the cell fibers can be completely removed from petri dishes to be replaced with new ones while keeping the cell fibers intact. The proliferation rate of the hepatocytes in the experimental groups was calculated by dividing the numbers of the hepatocytes that proliferated from 2 days of culture to 3 days of culture in the experimental groups with the ones in the control group.

[5] abbreviates: collagen-coated 24-well plates, culture duration 4 days.
Setting [6] is: cell fibers (core–shell hydrogel microfibres), culture duration 4 days.
Where [7] appears, read: cell fibers (core–shell hydrogel microfibres), culture duration 7 days.
The mark [8] stands for this setting: cell fibers (core–shell hydrogel microfibres), culture duration 14 days.
Where [9] appears, read: cell fibers (core–shell hydrogel microfibres), culture duration 30 days.

Consider 3 compounds from paper PMC9133069, “In vitro proliferation and long-term preservation of functional primary rat hepatocytes in cell fibers” (Scientific Reports, 2022).

As to `O=C(O)Cc1ccccc1Nc1c(Cl)cccc1Cl` [Diclofenac], the half-inhibitory concentration (IC50) with primary rat hepatocytes [1] (setting [5]) is 0.472 ± 0.098 mM; in the assay with primary rat hepatocytes [2] (setting [5]), 0.385 ± 0.041 mM.
In the case of `CC(=O)Nc1ccc(O)cc1` [Acetaminophen], the IC50 with primary rat hepatocytes [1] (setting [6]) was 18.3 mM; in the assay with primary rat hepatocytes [1] (setting [7]), 18.6 mM; in the assay with primary rat hepatocytes [1] (setting [8]), 18.9 mM; with primary rat hepatocytes [1] (setting [9]), 18.9 mM; in the assay with primary rat hepatocytes [1] (setting [5]), 19.3 mM; in the assay on primary rat hepatocytes [3] (setting [6]), 16.7 mM. For the same compound, the IC50 was determined as 16.4 mM with primary rat hepatocytes [3] (setting [7]); 16.3 mM with primary rat hepatocytes [3] (setting [8]); 15.9 mM with primary rat hepatocytes [3] (setting [9]); 8.51 ± 0.089 mM in the assay on primary rat hepatocytes [3] (setting [5]); 17 mM in the assay on primary rat hepatocytes [2] (setting [6]); 15.9 mM with primary rat hepatocytes [2] (setting [7]). The IC50 in the assay with primary rat hepatocytes [2] (setting [8]) was 15.9 mM; with primary rat hepatocytes [2] (setting [9]), 17.3 mM; in the assay with primary rat hepatocytes [2] (setting [5]), 24 mM.
For retrorsine, the “number of the cells in cell fibers during exposure” value in the assay with primary rat hepatocytes [4] (10 mg mL^−1, 24 h from day 2 to day 3 of culture, media containing 3T3CM) was “did not change”. Also, the “IC50 value, inhibition of primary rat hepatocyte proliferation” value with primary rat hepatocytes [4] (cell fibers with 3T3CM, 24 h exposure after 2 days of culture) amounted to 3100 ± 100 µg/mL. Moreover, in the assay on primary rat hepatocytes [4] (cell fibers with 3T3CM, 24 h exposure after 2 days of culture, converted from mg mL^−1), the concentration for half-maximal inhibition (IC50) was roughly 8.82 mM.

One may read the IC50 as the concentration that gives 50% inhibition. The low end stands for greater potency in that assay, the high end for weaker potency in that assay.
